Usually MIC stands for the least concentration at which growth counts as inhibited. Low readings indicate inhibition by little substance, high ones a need for much substance.

The values below come from DBAASP.

Among the test systems are Escherichia coli MG1655; Escherichia coli; Staphylococcus aureus; Candida albicans MDM8; Escherichia coli SBS 363; Micrococcus luteus A270.
Common to all, as to assay: ≥ marks a high value that may be exact or a test limit, other limits are often not marked, values filed in µg/mL are converted to µM
In assay [1] the test system is Candida albicans ATCC 14053.
Assay [2] has as its system Escherichia coli ATCC 11775.
Assay [3] concerns Micrococcus luteus ATCC 49732.
Assay [4] relates to Staphylococcus aureus ATCC 12600.
The test system of assay [5] is Candida albicans NCTC 1467.
The subject of assay [6] is Pseudomonas aeruginosa ATCC 27853.
Assay [7] deals with Escherichia coli NCTC 10418.
In assay [8] the test system is Klebsiella pneumoniae ATCC 43816.
Assay [9] relates to Staphylococcus aureus NCTC 12493.
Assay [10] has as its system Staphylococcus aureus NCTC 10788.
For assay [11], the system named is Candida albicans ATCC 10231.
Assay [12] deals with Pseudomonas aeruginosa ATCC 15422.
In assay [13] the test system is Escherichia coli ATCC 25922.
For assay [14], the system named is Enterococcus faecalis ATCC 29212.
The subject of assay [15] is Staphylococcus epidermidis KCTC 1917.
The subject of assay [16] is Staphylococcus aureus ATCC 25923.
Assay [17] relates to Klebsiella pneumoniae ATCC 700603.
For assay [18], the system named is Pseudomonas aeruginosa ATCC 10145.
The subject of assay [19] is Pseudomonas aeruginosa ATCC 47085.
For assay [20], the system named is Candida parapsilosis ATCC 22019.
In assay [21] the test system is Candida albicans ATCC 24433.
Assay [22] has as its system Trichophyton rubrum ATCC 28189.
Assay [23] deals with Enterococcus faecalis NCTC 12697.

Molecules are shown by their SMILES. ≈ marks a conversion by molar mass, not a printed value. Where “and” joins values, the source holds several entries; their conditions need not be identical. Equal entries are not always repeated. Some results are limits rather than exact numbers.

With `CC(C)C[C@H](NC(=O)[C@H](CO)NC(=O)[C@@H](NC(=O)[C@@H](N)CCC(=O)O)C(C)C)C(=O)N[C@@H](CC(N)=O)C(=O)N[C@@H](CO)C(=O)NCC(=O)N[C@@H](Cc1ccc(O)cc1)C(=O)N[C@@H](Cc1ccc(O)cc1)C(=O)O` [EVSLNSGYY], the minimum inhibitory concentration (MIC) in assay [1] is at least 291 µM; in assay [2], at least 97 µM; in [3], at least 97 µM; in [4], at least 97 µM.

Regarding `CC[C@H](C)[C@@H]1NC(=O)[C@H](CC(C)C)NC(=O)[C@@H](NC(=O)[C@@H](NC(=O)[C@@H](NC(=O)[C@H](C)NC(=O)CNC(=O)[C@H](CC(C)C)NC(=O)[C@H](C)NC(=O)[C@@H](N)Cc2ccccc2)C(C)C)[C@@H](C)O)CSSC[C@@H](C(=O)N[C@@H](CCCCN)C(=O)N[C@H](C(=O)N[C@@H](CC(C)C)C(=O)N2CCC[C@H]2C(=O)N[C@@H](CCCCN)C(=O)N[C@@H](CC(C)C)C(=O)N[C@@H](Cc2ccccc2)C(=O)O)C(C)C)NC(=O)[C@H](CCCCN)NC(=O)[C@H]([C@@H](C)O)NC(=O)[C@H](CCCN=C(N)N)NC1=O` [FALGAVTCLIRTKCKVLPKLF], the MIC in assay [5] was at least 128 µM; in assay [6], above 128 µM; in assay [7], at least 64 µM; in [8] it was at least 128 µM; in assay [9], at least 128 µM; in assay [10] it was at least 128 µM.

With `CC(C)C[C@H](NC(=O)CNC(=O)[C@H](Cc1ccc(O)cc1)NC(=O)[C@H](C)NC(=O)[C@@H]1CCCN1C(=O)[C@H](CC(C)C)NC(=O)[C@H](CCC(=O)O)NC(=O)[C@H](Cc1ccccc1)NC(=O)[C@H](Cc1cnc[nH]1)NC(=O)[C@H](CO)NC(=O)[C@@H](N)CCCCN)C(=O)O` [KSHFELPAYGL], the MIC was above 500 µM in assay [11]; at least 500 µM in [12]; above 500 µM in [13]; 422 µM and 405 µM and 252 µM in assay [14]; at least 267 µM in [15].

On to `CC(C)C[C@H](NC(=O)[C@H](Cc1c[nH]c2ccccc12)NC(=O)[C@H](Cc1cnc[nH]1)NC(=O)[C@H](CCCCN)NC(=O)[C@H](CC(C)C)NC(=O)[C@H](C)NC(=O)[C@H](CC(C)C)NC(=O)[C@H](CCCCN)NC(=O)CNC(=O)[C@@H](NC(=O)[C@@H](NC(=O)[C@@H](N)CCCCN)[C@@H](C)O)C(C)C)C(=O)O` [KTVGKLALKHWL], for which the MIC in assay [16] was above 15 µM; against Escherichia coli MG1655, 15 µM (≈ 20.9 µg/mL); in assay [17], above 15 µM; in assay [18], 15 µM (≈ 20.9 µg/mL).

On to `CC(C)[C@H](NC(=O)[C@H](C)NC(=O)[C@@H](NC(=O)CNC(=O)[C@@H]1CCCN1)[C@@H](C)O)C(=O)N[C@@H](Cc1ccccc1)C(=O)N[C@@H](CCCCN)C(=O)O` [PGTAVFK], for which the MIC in assay [1] is at least 201 µM; in assay [2] it was 31 µM (≈ 22.3 µg/mL); in [3] it was 31 µM (≈ 22.3 µg/mL); in [4], 31 µM (≈ 22.3 µg/mL).

Take `CC[C@H](C)[C@H](NC(=O)[C@H](CCCN=C(N)N)NC(=O)[C@H](CCC(N)=O)NC(=O)[C@@H](NC(=O)[C@@H](NC(=O)[C@@H](N)CCCN=C(N)N)[C@@H](C)CC)C(C)C)C(=O)N[C@@H](C)C(=O)N[C@@H](CCCCN)C(=O)N[C@@H](Cc1c[nH]c2ccccc12)C(=O)N[C@@H](C)C(=O)N[C@@H](CCCCN)C(=O)N[C@@H](CCCCN)C(=O)N[C@@H](Cc1c[nH]c2ccccc12)C(=O)N[C@@H](Cc1ccc(O)cc1)C(=O)N[C@@H](CCCCN)C(=O)N[C@@H](C)C(=O)NCC(=O)N[C@@H](CCCCN)C(N)=O` [RIVQRIAKWAKKWYKAGK]: the minimal inhibitory concentration (MIC) was at least 55 µM in assay [19] and 13.7 µM (≈ 30.5 µg/mL) in assay [16].

Turning to `CC[C@H](C)[C@H](NC(=O)[C@H](CCCN=C(N)N)NC(=O)[C@H](CCC(N)=O)NC(=O)[C@@H](NC(=O)[C@@H](NC(=O)[C@@H](N)CCCN=C(N)N)[C@@H](C)CC)C(C)C)C(=O)N[C@@H](CC(C)C)C(=O)N[C@@H](CCCCN)C(=O)N[C@@H](Cc1c[nH]c2ccccc12)C(=O)N[C@@H](CC(C)C)C(=O)N[C@@H](CCCCN)C(=O)N[C@@H](CCCCN)C(=O)N[C@@H](Cc1c[nH]c2ccccc12)C(=O)N[C@@H](Cc1ccc(O)cc1)C(=O)N[C@@H](CCCCN)C(=O)N[C@@H](CC(C)C)C(=O)NCC(=O)N[C@@H](CCCCN)C(N)=O` [RIVQRILKWLKKWYKLGK], the figures for the MIC in assay [19] and in assay [16] were 27 µM (≈ 63.6 µg/mL) and 13.6 µM (≈ 32 µg/mL), respectively.

For `CC[C@H](C)[C@H](NC(=O)[C@H](CC(C)C)NC(=O)[C@H](CO)NC(=O)[C@@H](N)CCCN=C(N)N)C(=O)N[C@H](C(=O)N[C@@H](Cc1cnc[nH]1)C(=O)N[C@@H](CCC(N)=O)C(=O)N[C@@H](CCCN=C(N)N)C(=O)N[C@@H](CC(C)C)C(=O)N[C@@H](Cc1ccccc1)C(N)=O)C(C)C` [RSLIVHQRLF], the MIC is at least 315 µM in assay [20]; above 315 µM with Escherichia coli; at least 315 µM in [21]; above 315 µM against Staphylococcus aureus; at least 315 µM in assay [22].

With `CC[C@H](C)[C@H](NC(=O)[C@H](CC(C)C)NC(=O)[C@H](CCCCN)NC(=O)[C@H](CCCN=C(N)N)NC(=O)[C@H](Cc1ccccc1)NC(=O)[C@H](CC(C)C)NC(=O)[C@H](CO)NC(=O)[C@H](CC(C)C)NC(=O)[C@H](CC(C)C)NC(=O)[C@@H](N)CO)C(=O)N[C@H](C(N)=O)[C@@H](C)O` [SLLSLFRKLIT], the MIC came out at 1.56 µM (≈ 2.01 µg/mL) in the assay with Candida albicans MDM8, 12.5 µM (≈ 16.1 µg/mL) against Escherichia coli SBS 363 and 1.56 µM (≈ 2.01 µg/mL) with Micrococcus luteus A270.

For the compound `CSCC[C@H](NC(=O)[C@H](CCC(=O)O)NC(=O)[C@H](CCCCN)NC(=O)[C@H](CC(C)C)NC(=O)[C@H](CCCCN)NC(=O)CNC(=O)[C@H](Cc1c[nH]c2ccccc12)NC(=O)[C@H](CC(C)C)NC(=O)[C@@H](N)CO)C(=O)N[C@@H](CC(C)C)C(=O)N[C@@H](C)C(=O)N[C@@H](C)C(=O)N[C@@H](C)C(=O)NCC(=O)N[C@@H](CCCCN)C(=O)N[C@@H](C)C(=O)N[C@H](C(=O)N[C@@H](C)C(=O)N[C@@H](CC(N)=O)C(=O)N[C@@H](C)C(=O)N[C@H](C(=O)N[C@@H](CC(N)=O)C(=O)NCC(=O)N[C@@H](CC(C)C)C(=O)N[C@@H](C)C(=O)N[C@@H](CC(N)=O)C(=O)N[C@@H](CCC(N)=O)C(N)=O)C(C)C)C(C)C` [SLWGKLKEMLAAAGKAVANAVNGLANQ], the MIC in assay [5] is at least 64 µM; in [6], 32 µM (≈ 87.2 µg/mL); in assay [23] it was at least 32 µM; in assay [7] it was 8 µM (≈ 21.8 µg/mL); in [8], at least 32 µM; in [9], 16 µM (≈ 43.6 µg/mL). The same compound displayed an MIC in [10] of 8 µM (≈ 21.8 µg/mL).

`CC[C@H](C)[C@H](NC(=O)[C@H](CC(C)C)NC(=O)[C@H](C)NC(=O)[C@H](CO)NC(=O)[C@H](CCCN=C(N)N)NC(=O)[C@@H](N)CO)C(=O)N[C@H](C(=O)N[C@@H](Cc1cnc[nH]1)C(=O)N[C@@H](CCC(N)=O)C(=O)N[C@@H](CCCN=C(N)N)C(=O)N[C@@H](CC(C)C)C(=O)N[C@@H](Cc1ccccc1)C(N)=O)C(C)C` [SRSALIVHQRLF]: the minimum inhibitory concentration (MIC) in assay [20] is at least 280 µM; against Escherichia coli, above 280 µM; in assay [21] it was at least 280 µM; with Staphylococcus aureus it was above 280 µM; in assay [22], at least 280 µM.
